Data reported in patent US9241993B2, “Inhibitors of branched-chain-aminotransferase-1 (BCAT1) for the treatment of brain tumors” (Deutsches Krebsforschungszentrum, priority 2011, dated 2016).

Tests used:
Assay type in all cases: cell-based, human
U-373MG cells = assay: 1H-NMR spectroscopy of cell extracts, intracellular BCAA levels; conditions: 20 mM gabapentin for 20 hours vs control
Experimental: (§1) (i) Treatment with dimethyl-α-ketoglutarate and Gabapentin 5×10^4 cells/well were seeded in 24-well plates in a total volume of 500 μl cell culture medium. The medium was removed 16 hours after seeding the cells, and replaced with 500 μl medium containing 5 mM or 10 mM dimethyl-α-ketoglutarate (Dimethyl 2-oxoglutarate; Sigma-Aldrich) or 5 mM, 10 mM or 20 mM gabapentin ([…]; Sigma-Aldrich). Corresponding volumes of 200 mM HEPES buffer (pH 7.4) were added to the respective control wells.
(§2) Cells were harvested by trypsinization, washed once with ice-cold PBS, and the cell pellet was frozen at −80° C. Typically 1×10^8 harvested cells were subjected to perchloric acid extraction followed by KOH neutralization according to published protocols^50. Briefly, 2 mL of ice-cold 1 N HClO4 were added to a frozen pellet of harvested cells. The pellet was disrupted using a Teflon pestle and a glass homogeniser. 1 mL of ice-cold water was added to the lysate, vortexed for 90 s and centrifuged at 10000×g for 10 min at 4° C. The pellet was re-extracted and the supernatants were combined. The extract was neutralised with KOH and the pH was adjusted to 6.5-7.0 Precipitated KClO4 was pelleted at 25000×g for 20 min and the supernatant was lyophilised.
(§3) The lyophilised extract residues were dissolved in 0.5 ml of a D2O buffer (99.9% D) containing 30 mM sodium phosphate and 0.1 mM sodium azide (pH 7.02). For quantitative analysis a reference capillary (1.5 mm OD, 0.99 mm ID) was filled with a solution of 11 mM trimethylsilyl-2,2,3,3-tetradeuteropropanoic acid (TSP, sodium salt) in the D2O buffer described above. Subsequently, the capillary was sealed in the flame of a Bunsen burner. A calibration solution was prepared by placing weighed amounts of glucose and citric acid in the D2O buffer to give the calculated concentrations of 10.49 mM glucose and 4.95 […]. ^1H-NMR spectra of the calibration solution+capillary were acquired at 600 MHz (Avance AV-600, Bruker BioSpin GmbH) using a standard 5-mm NMR tube and a triple-resonance inverse probe under the same conditions to be used for the extracts (20° C., presaturation of residual HDO signal, repetition time TR=7 s, 30° flip angle). […] Cell extracts were measured with the calibrated reference capillary inserted (512 transients in 1 hour), and the ^1H-NMR signals for the branched-chain amino acids, various metabolites, and the TSP reference were integrated. The TSP integral was defined as 4.60 mM so that the metabolite signal integrals gave directly the metabolite concentrations in mM (μmol/ml) for the 0.5 ml volumes used.

U-87MG cells = assay: as above; conditions: 20 mM gabapentin for 20 hours vs control
Experimental: as §1, §2, §3

[1] = tested on: glioblastoma cell lines U87-MG, HS683 and U373-MG; assay: Click-iT EdU cell proliferation assay after gabapentin treatment; conditions: concentration-dependent
Experimental: as §1
To assess the proliferation of glioma cells after treatment with gabapentin or after lentiviral knockdown, the Click-iT® EdU cell proliferation assay (Invitrogen, Karlsruhe, Germany) was used following the manufacturer's instructions. The cells were incubated with 10 μM of the nucleoside analog EdU (5-ethynyl-2′deoxyuridine) for 16 hours. Quantification of cells that incorporated EdU was performed using FACS Canto II (BD Biosciences).
The human glioblastoma cell lines U87-MG (HTB-14), HS683 (HTB-138) and U373-MG (HTB-17; LGC Standards, Teddington TW11 0LY U.K.) were cultured in Dulbecco's Minimal Essential Medium supplemented with 10% fetal calf serum and 1% penicillin/streptomycin-mix. 5×10^4 cells/well were seeded in 24 well plates in a total volume of 500 μl cell culture medium. […]

HS683 = assay: Cell-cycle analysis (propidium iodide, flow cytometry), sub-G1 fraction; conditions: HS683, 20 mM, 20 hours after treatment
Experimental: (§4) Cell-cycle analysis was performed 20 hours after treatment with gabapentin and 6 days after lentiviral transduction. Nicoletti buffer (0.1% sodium citrate, pH7.4, 0.05% Triton X-100, 50 μg propidium iodide) was added to the wells containing both dead and living cells. After 4 hours in the dark at 4° C., DNA content was analysed by flow cytometry using FACS Canto II (BD Biosciences, San Jose, Calif., USA). FACS Diva software was used to quantify the distribution of cells in each cell-cycle phase: sub-G1 (dead cells), G1, S, and G2/M. For investigation of apoptotic activity after lentivira knockdown NCH421k cells were incubated with annexin V-P (Phycoerythrin) and 7-AAD (7-aminoactinomycin D, BD Biosciences) for 15 minutes in the dark, immediately followed by flow cytometry.

U373-MG = assay: as above; conditions: 20 mM, 20 hours after treatment
Experimental: as §4

U87-MG = assay: as above; conditions: 20 mM, 20 hours after treatment
Experimental: as §4

glioma cells = assay: Glutamate quantification in supernatant of gabapentin-treated cells; conditions: 20 mM, 6 and 12 hours after start of treatment
Experimental: as §1
Glutamate concentration in the supernatant of cells treated with gabapentin was determined using the glutamine/glutamate determination Kit (GLN-1; Sigma-Aldrich) according to the manufacturer's instructions. The reaction volumes were scaled down to 100 μl total volume and absorbance was measured in triplicate in a microplate (Corning° 96 Well Clear Flat Bottom UV-Transparent Microplate) using a Tecan Infinite M200 plate reader (Tecan, Austria). Data were normalised to the number of cells per well.

glioma cell lines = assay: Cell-cycle analysis, G1 phase; conditions: gabapentin treatment, 20 hours
Experimental: as §4

BCAT1 expression = assay: BCAT1 RNA and protein expression (qRT-PCR, Western blot) in glioma cell lines; conditions: increasing concentration of dimethyl-alpha-KG in the culture medium (5 mM or 10 mM)
Experimental: Total RNA was extracted using the AllPrep DNA/RNA/Protein Mini Kit (Qiagen) according to the manufacturer's instructions. FirstChoice® Human Brain Reference Total RNA from Ambion served as normal brain RNA pool (n=23 donors). Total RNA (500 ng) was reverse-transcribed using random primers and superscript II (Invitrogen, Karlsruhe, Germany) according to the manufacturer's instructions. Each complimentary DNA sample was analysed in triplicate with the Applied Biosystems Prism 7900HT Fast Real-Time PCR System (Applied Biosystems, Foster City, Calif., USA) using Absolute SYBR Green ROX Mix (ABgene, Epsom, UK). The relative amount of specific mRNA was normalised to ARF, B2M and TBP.
All experiments involving the use of human tissues are carries out in line with the guidelines of the institutional review board of the Medical Faculty at Heinrich Heine University Dusseldorf. Fresh frozen human tumor tissue samples and a non-neoplastic brain tissue sample were lysed in guanidine isothiocyanate solution (4M) using an ULTRA-TURRAX (IKA, Staufen, Germany) and subjected to CsCl-ultracentrifugation. […]
Infection of glioma cells with virus at an M.O.I. of 2 was carried out in the presence of 8 μg/ml of polybrene (Chemicon, Billerica, Mass., USA). […] Quantification of BCAT1 and IDH1 knockdown was assessed by quantitative real-time PCR and Western blot. […]

Structure (SMILES) | increase of isoleucine (Ile) level, factor (U-373MG cells) | increase of leucine (Leu) level, factor (U-373MG cells) | increase of valine (Val) level, factor (U-373MG cells) | increase of isoleucine (Ile) level, factor (U-87MG cells) | increase of leucine (Leu) level, factor (U-87MG cells) | increase of valine (Val) level, factor (U-87MG cells) | reduction of cell proliferation ([1]; 5, 10 and 20 mM, all cell lines, vs mock treated cells (Example 2)) | reduction of proliferation, estimated based on EdU-incorporation ([1]; 20 hours (Example 9, FIG. 6a)) | Average sub-G1 (HS683) | Average sub-G1 (U373-MG) | Average sub-G1 (U87-MG) | Glutamate release (glioma cells) | cell cycle effect (fraction of cells in G1-phase) (glioma cell lines) | BCAT1 expression (BCAT1 expression)
NCC1(CC(=O)O)CCCCC1 [Gabapentin, 1-(aminomethyl) cyclohexaneacetic acid] | 2.32 | 2.18 | 1.83 | 1.19 | 1.38 | 1.09 | 20-55% | up to 56% | 10.1% | 2.8% | 2.4% | significantly reduced | partial G1-arrest | –
COC(=O)CCC(=O)C(=O)OC [dimethyl-alpha-KG, Dimethyl 2-oxoglutarate] | – | – | – | – | – | – | – | – | – | – | – | – | – | upregulated
